Measured values reported in patent US7504384B2 (priority 2000, dated 2009).
Like-named read-outs stand apart in the source and are kept apart here.

Experiments:
[1] = system: Influenza A (H3N2 strain) virus; format: cell-based, Influenza type A, A/Panama/2007/99 (H3N2); conditions: high concentration, Neutral Red Uptake Assay
[2] = system: Influenza A (H3N2 strain) virus; format: cell-based, Influenza type A, A/Panama/2007/99 (H3N2)
[3] = system: Influenza A (H1N1 strain) virus; format: cell-based, Influenza type A, A/New Caledonia/20/99 (H1N1); conditions: high concentration; Visual Observation Assay; Influenza A (H1N1 strain)
[4] = system: Influenza A (H1N1 strain) virus; format: cell-based, Influenza type A, A/New Caledonia/20/99 (H1N1); conditions: high concentration, Neutral Red Uptake Assay
mice = test: Acute (7 day) toxicity test; format: in vivo; conditions: mice, one week after a single i.p. dose of 1000, 500 or 200 mg/kg; versus untreated mice
Experimental: […] Mortality rate, body weight, blood count (red and white cells), hematocrit, and internal organ histology after sacrifice were assessed. These parameters were compared in Lipid-conjugate-treated and in control, untreated mice.

[5] = system: PGE2 and TXB2 production by guinea pig tracheal rings; test: Tracheal tissue PGE2 and TXB2 production (radioimmunoassay); conditions: Histamine (40 μM) + Compound XXVI (10 μM); histamine alone 5.6
Experimental: Experiment 3.5: Guinea pig tracheal rings were incubated with or without Compound XXVI for 30 minutes prior to stimulation. The medium was collected after 30 minutes, and PGE2 and TXB2 levels were determined by radioimmunoassay (Table 3.2). PGE2 and TXB2 are metabolites of arachidonic acid produced during inflammatory response.

[6] = system: Guinea pig tracheal rings; test: Inhibition of tracheal ring contraction; conditions: Lipid-conjugate 10 μM
Experimental: A muscle preparation (tracheal rings) was isolated from rats (Experiments 3.1-3.3) and from guinea pigs (Experiments 3.4-3.5). Muscle contraction was measured by attachment of the muscle to a pressure transducer, which works much like a spring. Administration of asthmatogenic substances such as endothelin-1 (ET) and acetylcholine (AcCh) induces muscle contraction. Endothelins are released upon vascular endothelial injury, and they activate macrophages and act as strong chemo-attractants for circulating monocytes. Endothelins affect vascular smooth muscle fibroblast proliferation; help regulate vascular, airway, and intestinal smooth muscle tone; increase the activity of bone alkaline phosphatase; stimulate release of atrial natriuretic peptide (ANP) from atrial cardiocytes; inhibit the release of renin from glomeruli and modulate norepinephrine at sympathetic nerve termini. Opposing vasomotor effects are regulated through the binding of distinct endothelin receptors for vasoconstriction and vasodilation. Endothelins have been linked to atherosclerosis and various cardiovascular disease states. ET-1 is important in congestive heart failure, renal failure, pulmonary hypertension, hyperlipidemia and metastatic prostate cancer. On the other hand, AcCh is one of the three main receptors on the bronchi of the lungs, which are basically tubes with muscular walls. Stimulation of bronchial AcCh receptor induces muscle contraction and decreased airflow through the bronchi. Thus, ET and AcCh were used to experimentally induce muscle contraction in the lungs as a model of obstructive respiratory disorders.
Experiment 3.4: Guinea pig tracheal rings (in a linear array), immersed in a ringer bath, were connected to an apparatus measuring the length of the ring chain. […] Human airways have both Histamine (H)-1 and H2 receptors. H1 receptors, which mediate bronchoconstriction, predominate. Histamine application in experimental models produces signs and symptoms of asthma, such as narrowing of the airways, mucus secretion, wheezing, and coughing.

[7] = system: HIV-1IIIB-infected H9 cells and uninfected MT-2 cells; test: Inhibition of fusion between HIV-infected and uninfected cells; format: cell-based; conditions: for IC50 (mean ± SD), inhibition of fusion / IC90 (mean ± SD), inhibition of fusion: H9/HIV-1 IIIB + MT-2 cells, 2 h; for IC50 / IC90: Table 1.4
Experimental: In this assay, HIV-1IIIB-infected H9 cells were labeled with BCECF (2′,7′-bis(2-carboxyethyl)-5-6-carboxyfluorescein-acetoxymethyl-ester, Molecular Probes, Eugene, Oreg.) according to the manufacturer's instructions. BCECF-labeled H9/HIV-1 IIIB cells (10^4) were mixed with 1×10^5 uninfected MT-2 cells. After incubation in a 96-well plate at 37° C. for 2 h, the fused and unfused labeled cells were counted under an inverted fluorescence microscope at ×160 magnification. At least 200 BCECF-labeled cells were counted and the proportion of fused cells was determined Fusion tests were carried out in the presence and absence of graded quantities of the tested Lipid-conjugates. […] The IC50 represents the concentration of a drug that is required to achieve 50% inhibition. Similarly, the IC90 represents the concentration of a drug that is required to achieve 90% inhibition.

HIV-1IIIB = test: Inhibition of p24 production (HIV-1IIIB infection of MT-2 cells); format: cell-based; conditions: fourth day, p24 ELISA
Experimental: Experiment 1.2: Inhibition of HIV-1IIIB Infection
After 1 h, half of the culture medium was changed and replaced by fresh medium (with/without Lipid-conjugate) and after 24 h, the second half of the culture medium was changed and replaced by fresh medium (with/without Lipid-conjugate). On the fourth day after incubation at 37° C., 100 μl of culture supernatants were collected from each well and an equal volume of fresh medium was added to the wells. The collected supernatants were mixed with an equal volume of 5% (v/v) Triton X-100 and assayed for p24 antigen using an ELISA kit from Coulter Immunology (Hialeah, Fla.).

[8] = system: vaccinia virus (WR strain); format: cell-based; conditions: 48 hr
[9] = target: V3 (third variable) domain of the HIV-1 envelope glycoprotein gp120; test: V3 antibody binding (ELISA); design: species or system human immunodeficiency virus type 1 (HIV-1); conditions: standard ELISA
Experimental: V3 antibody binding is an assay that uses an antibody that binds to the V3 (third variable) domain of the human immunodeficiency virus type 1 (HIV-1) envelope glycoprotein gp120. Anti-V3 domain antibodies may provide an indicator of the presence and amount of HIV. V3 antibody binding was determined by standard ELISA.

Punta Toro virus [10] = format: cell-based, strain Adames
Punta Toro virus [11] = format: cell-based, strain Adames; remark: listed apart in the source
[12] = system: Respiratory syncytial virus; format: cell-based, strain A2; conditions: lower range of doses, at the concentrations tested
Influenza B virus = format: cell-based, Influenza type B, B/Hong Kong/330/02; conditions: lower range of doses, at the concentrations tested
Human RBC = test: Prevention of hemolysis of human red blood cells; format: cell-based; conditions: 20 min, 10 μM Lipid-conjugate, None = 1.000
Experimental: Hemolysis, the breakdown of red blood cells (RBC), may be either a primary disease in itself, or a syndrome associated with another disease or physiological insult. In order to determine the effect of Lipid-conjugates on hemolysis, red blood cells were incubated in the presence of known membrane destabilizing agents and the release of hemoglobulin into the extracellular medium was detected.
Human RBC were washed in saline and suspended in Hanks buffer (pH 7.4). Hemolysis was induced in the absence or presence of 10 μM Lipid-conjugates by treatment with either 5 U/ml streptolysin O (SLO), 25 U/ml streptolysin S (SLS), or 5 μg/ml lysophosphatidylcholine (lyso-PC) for 20 min. The cell membranes were spun and the hemoglobin content in the supernatant was determined by measuring the O.D. at 540 nm (Table 5.1).

[13] = lower range of doses, at the concentrations tested

| Molecule | toxicity: mortality rate, body weight, blood count, hematocrit, internal organ histology (mice) | IC50 (mean ± SD), inhibition of fusion [7] [µg/mL] | IC90 (mean ± SD), inhibition of fusion [7] [µg/mL] | IC50 (mean ± SD), inhibition of p24 production (HIV-1IIIB) [µg/mL] | IC90 (mean ± SD), inhibition of p24 production (HIV-1IIIB) [µg/mL] | IC50 [7] [nM] | IC90 [7] [µM] | % inhibition [8] [%] | Virus titer [8] | IC50 [9] [nM] | IC50 (HIV-1IIIB) [nM] | IC90 (HIV-1IIIB) [µM] | further results |
| --- | --- | --- | --- | --- | --- | --- | --- | --- | --- | --- | --- | --- | --- |
| NC(=O)c1ncn([C@@H]2O[C@H](CO)[C@@H](O)[C@H]2O)n1 [Ribavirin, reference compound] |  |  |  |  |  |  |  |  |  |  |  |  | SI (IC50/EC50) [1]: 36; SI (IC50/EC50) ([2]; high concentration, Visual Observation Assay, Influenza A (H3N2 strain)): 56; SI (IC50/EC50) [3]: 22; SI (IC50/EC50) [4]: 25 |
| PE conjugated to CMC [Compound XXVI] | did not alter the parameters |  |  |  |  |  |  |  |  |  |  |  | TXB2 [5]: 1.75 ng/mL; % Inhibition of tracheal ring contraction ([6]; stimulant Endothelin-1 (100 nM)): 92 ± 1.1%; % Inhibition of tracheal ring contraction ([6]; stimulant Histamine (20 μM)): 69 ± 0.1%; % Inhibition of tracheal ring contraction ([6]; stimulant Phospholipase (0.5 μ/ml) (crotalus atrox type II)): 100 ± 0.3% |
| PE conjugated to Polygeline (haemaccel) [Compound XXVII] |  | >500 | >500 | 375.8 ± 119.5 | >500 |  |  |  |  |  |  |  |  |
| dimyristoyl-phosphatidyl-ethanolamine linked to HA [Compound XXIII] |  | 122.8 ± 14.8 | 219.8 ± 10.6 | 118.0 ± 16.8 | 296.3 ± 104.0 | 1830 | 3.3 | 99.9 | 7.7 × 10^4 PFU/culture | 3000 | 1770 | 4.44 |  |
| dipalmitoyl-phosphatidyl-ethanolamine (PE) conjugated to chondroitin-sulfate A [Compound XXV] | induced hemorrhage | >500 | >500 | 72.5 ± 8.0 | 106.0 ± 10.3 | > 10000 | > 10 | 62.8 | 3.2 × 10^7 PFU/culture | 200 | 1450 | 2.12 | SI (IC50/EC50) (Punta Toro virus [10]): 0; EC50 (Punta Toro virus [10]; low concentrations, Neutral Red Uptake Assay, Punta Toro A): >100 µg/mL; virus inhibitory effect against influenza A (H3N2 strain) [2, 13]: did not demonstrate a virus inhibitory effect; SI (IC50/EC50) (Punta Toro virus [11]): 0; EC50 (Punta Toro virus [11]; low concentrations, Visual Observation Assay, Punta Toro A): >100 µg/mL; virus inhibitory effect against Punta Toro virus (Punta Toro virus [11]; [13]): did not display a virus inhibitory effect; virus inhibitory effect against RSV [12]: did not demonstrate a virus inhibitory effect; virus inhibitory effect against influenza B (Influenza B virus): did not demonstrate a virus inhibitory effect |
| hyaluronic acid [HA, reference compound] |  |  |  |  |  |  |  |  |  |  |  |  | HEMOLYSIS (O.D. AT 540 nm), Lyso-PC (Human RBC; 5 μg/ml lysophosphatidylcholine): 1.875 O.D.; HEMOLYSIS (O.D. AT 540 nm), SLO (Human RBC; 5 U/ml streptolysin O): 1.000 O.D.; HEMOLYSIS (O.D. AT 540 nm), SLS (Human RBC; 25 U/ml streptolysin S): 1.000 O.D. |
